Measured values: PubChem BioAssay (NCI)
Values joined by “and” are separate entries in the source; they are usually repeats but may differ in a detail not shown here. Equal values may be shown once.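 Briefly, cells in 96-well plates were exposed to five compound concentrations for 48 h, and endpoints were estimated by linear interpolation. GI50: concentration for 50% inhibition of growth. Definition used: TGI = concentration required for complete inhibition of growth.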

Assays:
Test in all cases: NCI anticancer screen, dose series, 48 h
[1] = test system: A549 NSCLC
[2] = test system: ACHN renal
[3] = test system: HOP-92 NSCLC
[4] = test system: K-562 leukemia
[5] = test system: MOLT-4 leukemia
[6] = test system: NCI/ADR-RES ovarian
[7] = test system: RPMI-8226 leukemia
[8] = test system: SK-MEL-2 melanoma
[9] = test system: SK-MEL-5 melanoma
[10] = test system: U251 CNS

| Structure (SMILES) | GI50 [1] | TGI [1] | GI50 [2] | TGI [2] | GI50 [3] | TGI [3] | GI50 [4] | TGI [4] | GI50 [5] | TGI [5] | GI50 [6] | TGI [6] | GI50 [7] | TGI [7] | GI50 [8] | TGI [8] | GI50 [9] | TGI [9] | GI50 [10] | TGI [10] |
| --- | --- | --- | --- | --- | --- | --- | --- | --- | --- | --- | --- | --- | --- | --- | --- | --- | --- | --- | --- | --- |
| CCC(=O)Nc1ccccc1C#C/C=C\C#Cc1ccccc1C(F)(F)F | 2.53 µM | > 32.6 µM | 3.98 µM | > 50 µM | 3.01 µM | > 36.1 µM | 2.29 µM | > 50 µM | 4.11 µM | > 23.3 µM | 1.48 µM | 9.95 µM | 4.25 µM | > 50 µM | 0.631 µM | > 11.1 µM | 5.44 µM | 18.1 µM | 2.42 µM | > 40.7 µM |
| Cc1cc(C(=O)NC(CCC(=O)O)C(=O)O)sc1CCC1CNc2nc(N)[nH]c(=O)c2C1 (centres undefined) | 0.0437 µM and 0.156 µM | > 100 µM | 0.0133 µM and 0.0435 µM | > 100 µM | 0.179 µM and 0.0802 µM | > 100 µM | < 0.01 µM | > 100 µM | 0.0297 µM and 0.0453 µM | > 100 µM | 0.0499 µM and 0.0758 µM | > 100 µM | 0.15 µM and 0.229 µM | > 100 µM | – | > 100 µM | 0.056 µM and 0.279 µM | > 100 µM | 0.0368 µM and 0.0439 µM | > 100 µM |
| COc1cc(N2CCN(C(C)C)CC2)ccc1Nc1nc(Nc2cccc(F)c2C(=O)O)c2cc[nH]c2n1 | > 25 µM | > 25 µM | > 25 µM | > 25 µM | 1.06 µM | > 25 µM | > 25 µM | > 25 µM | > 25 µM | > 25 µM | > 25 µM | > 25 µM | > 25 µM | > 25 µM | > 25 µM | > 25 µM | > 25 µM | > 25 µM | > 25 µM | > 25 µM |
| COc1cc2ncnc(Nc3ccc4c(cnn4Cc4ccccc4)c3)c2cc1OC | > 17.9 µM | > 25 µM | 0.642 µM | > 25 µM | 0.434 µM | > 25 µM | 7.27 µM | > 19.7 µM | 13.5 µM | > 25 µM | > 19.5 µM | > 25 µM | 11.2 µM | > 25 µM | > 25 µM | > 25 µM | > 17.5 µM | > 25 µM | > 19.2 µM | > 25 µM |
| CN1CCN(c2nc(NCCCNc3ccnc4cc(Cl)ccc34)c3ccccc3n2)CC1 | 5.01 µM | 19.2 µM | 3.92 µM | 13.6 µM | 2.07 µM | 6.43 µM | 2.64 µM | 10.9 µM | 3.25 µM | 15.2 µM | 22 µM | 59.1 µM | 1.8 µM | 7.69 µM | 3.18 µM | 9.09 µM | 1.78 µM | 3.18 µM | 3.39 µM | 10.3 µM |
| C[C@]1(Cn2ccnn2)C(C(=O)O)N2C(=O)CC2S1(=O)=O (some centres undefined) | > 100 µM | > 100 µM | > 100 µM | > 100 µM | > 100 µM | > 100 µM | > 100 µM | > 100 µM | – | – | > 100 µM | > 100 µM | > 100 µM | > 100 µM | > 100 µM | > 100 µM | > 100 µM | > 100 µM | > 100 µM | > 100 µM |
| Cc1[nH]c(-c2nc3ccccc3[nH]2)c(C)c1C(=O)NC(C)C1CCCCC1 (centres undefined) | 12.2 µM | 34 µM | 14.4 µM | 30.2 µM | 10.2 µM | 25.3 µM | 3.45 µM | > 100 µM | 4.95 µM | 28.1 µM | 10.2 µM | 28 µM | 4.35 µM | 17.7 µM | 10.1 µM | 25.5 µM | 10.3 µM | 22.3 µM | 5.58 µM | 25.1 µM |
| O=c1c(Br)cc2c(-c3ccccc3)c3cc(Br)c(O)c(Br)c3oc-2c1Br | – | > 100 µM | – | > 100 µM | – | > 100 µM | – | > 100 µM | – | > 100 µM | – | > 100 µM | – | > 100 µM | – | – | – | > 100 µM | – | > 100 µM |
| COc1ccc2c(Cl)cc(NC(=O)Nc3c(C)cccc3C)nc2c1 | 6.1 µM | 69.4 µM | 3.59 µM | 24.7 µM | 4.26 µM | 27.4 µM | 60.7 µM | > 100 µM | 45.9 µM | > 100 µM | > 100 µM | > 100 µM | > 100 µM | > 100 µM | 28.6 µM | 85 µM | 18.1 µM | > 100 µM | 13.7 µM | 39.2 µM |
| CCCCNC(=O)c1cc(NCc2cc(O)ccc2O)ccc1O | 21.9 µM | 48.2 µM | 10.8 µM | 22.7 µM | 6.81 µM | 21.7 µM | 16.6 µM | 75.2 µM | 4.02 µM | 44.4 µM | 25 µM | > 100 µM | 1.76 µM | 7.85 µM | 22.8 µM | 65 µM | 15.4 µM | 29.6 µM | 22.6 µM | 59.1 µM |
| C=CC/C(=C\COP(=O)(OCc1ccc([N+](=O)[O-])o1)N(C)CCCCCl)CC/C=C(\C)CCC=C(C)C (centres undefined) | 13.9 µM | 26.9 µM | 15.5 µM | 30.2 µM | 14.5 µM | 27.6 µM | 17.3 µM | > 100 µM | 8.03 µM | 36.3 µM | 11.9 µM | 24.1 µM | 4.66 µM | 19.3 µM | 13.6 µM | 26.4 µM | – | – | 11 µM | 23 µM |
| N#Cc1c(N)nc(N)nc1N[C@H](c1nc2c(F)ccc(Cl)c2c(=O)n1-c1cccnc1)C1CC1 | 6.22 µM | 21.2 µM | 3.31 µM | > 100 µM | 0.549 µM | 7.59 µM | 31.8 µM | > 100 µM | 3.33 µM | 28.8 µM | 28.5 µM | > 100 µM | 19 µM | 46.4 µM | 23.3 µM | > 100 µM | 8.33 µM | 21.9 µM | 14.7 µM | 69.2 µM |
| CN(C)CC(C(=O)Cc1ccccc1)c1ccccc1 (centres undefined) | 16.7 µM | 35.5 µM | 1.97 µM | 3.53 µM | 2.78 µM | 7.5 µM | 1.62 µM | > 100 µM | 3.02 µM | > 100 µM | 4.4 µM | 23.9 µM | 0.444 µM | 3.17 µM | 2.54 µM | 5.57 µM | 11.6 µM | 25.2 µM | 2.23 µM | 5.02 µM |
